Test system: Energy system protein genes
Assay: DNA chip mRNA expression in yeast, energy system protein genes (Table 4)
Type: cell-based, Saccharomyces cerevisiae S288C
Method in brief: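 Value is the scanned fluorescence intensity ratio of exposed versus chemical-free cells. Log-phase S288C yeast in YPD at 25° C. received one toxic substance for two hours, dosed to slow growth without killing; Cy3/Cy5-labeled cDNA from oligo-dT-purified mRNA was hybridized to a whole-genome chip at 65° C.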

SMILES: S=C([S-])NCCNC(=S)[S-].[Zn+2] [(11), zinc N,N′-ethylenebis(dithiocarbamate)]
- The level of expressed mRNA in the presence of chemical substance/The level of expressed mRNA in the absence of chemical substance (yeast gene YAL060W): 2.4
- The level of expressed mRNA in the presence of chemical substance/The level of expressed mRNA in the absence of chemical substance (yeast gene YBL058W, cells incubated two hours with the chemical substance): 1.3
- The level of expressed mRNA in the presence of chemical substance/The level of expressed mRNA in the absence of chemical substance (yeast gene YBL099W, cells incubated two hours with the chemical substance): 2.1
- The level of expressed mRNA in the presence of chemical substance/The level of expressed mRNA in the absence of chemical substance (yeast gene YBR001C, cells incubated two hours with the chemical substance): 1.0
- The level of expressed mRNA in the presence of chemical substance/The level of expressed mRNA in the absence of chemical substance (yeast gene YBR185C, cells incubated two hours with the chemical substance): 1.2
- The level of expressed mRNA in the presence of chemical substance/The level of expressed mRNA in the absence of chemical substance (yeast gene YBR221C, cells incubated two hours with the chemical substance): 1.2
- The level of expressed mRNA in the presence of chemical substance/The level of expressed mRNA in the absence of chemical substance (yeast gene YCL040W): 8.2
- The level of expressed mRNA in the presence of chemical substance/The level of expressed mRNA in the absence of chemical substance (yeast gene YCR012W): 1.8
- The level of expressed mRNA in the presence of chemical substance/The level of expressed mRNA in the absence of chemical substance (yeast gene YCR046C, cells incubated two hours with the chemical substance): 1.5
- The level of expressed mRNA in the presence of chemical substance/The level of expressed mRNA in the absence of chemical substance (yeast gene YCR105W, cells incubated two hours with the chemical substance): 2.3
- The level of expressed mRNA in the presence of chemical substance/The level of expressed mRNA in the absence of chemical substance (yeast gene YDL021W): 4.7
- The level of expressed mRNA in the presence of chemical substance/The level of expressed mRNA in the absence of chemical substance (yeast gene YDL067C, cells incubated two hours with the chemical substance): 1.4
- The level of expressed mRNA in the presence of chemical substance/The level of expressed mRNA in the absence of chemical substance (yeast gene YDL078C, cells incubated two hours with the chemical substance): 1.7
- The level of expressed mRNA in the presence of chemical substance/The level of expressed mRNA in the absence of chemical substance (yeast gene YDL107W, cells incubated two hours with the chemical substance): 1.0
- The level of expressed mRNA in the presence of chemical substance/The level of expressed mRNA in the absence of chemical substance (yeast gene YDL174C): 0.9
- The level of expressed mRNA in the presence of chemical substance/The level of expressed mRNA in the absence of chemical substance (yeast gene YDL181W, cells incubated two hours with the chemical substance): 0.8
- The level of expressed mRNA in the presence of chemical substance/The level of expressed mRNA in the absence of chemical substance (yeast gene YDR001C): 0.7
- The level of expressed mRNA in the presence of chemical substance/The level of expressed mRNA in the absence of chemical substance (yeast gene YDR050C, cells incubated two hours with the chemical substance): 2.0
- The level of expressed mRNA in the presence of chemical substance/The level of expressed mRNA in the absence of chemical substance (yeast gene YDR079W, cells incubated two hours with the chemical substance): 1.3
- The level of expressed mRNA in the presence of chemical substance/The level of expressed mRNA in the absence of chemical substance (yeast gene YDR178W, cells incubated two hours with the chemical substance): 2.0
- The level of expressed mRNA in the presence of chemical substance/The level of expressed mRNA in the absence of chemical substance (yeast gene YDR231C): 1.3
- The level of expressed mRNA in the presence of chemical substance/The level of expressed mRNA in the absence of chemical substance (yeast gene YDR298C, cells incubated two hours with the chemical substance): 1.2
- The level of expressed mRNA in the presence of chemical substance/The level of expressed mRNA in the absence of chemical substance (yeast gene YDR377W, cells incubated two hours with the chemical substance): 1.4
- The level of expressed mRNA in the presence of chemical substance/The level of expressed mRNA in the absence of chemical substance (yeast gene YDR529C, cells incubated two hours with the chemical substance): 0.8
- The level of expressed mRNA in the presence of chemical substance/The level of expressed mRNA in the absence of chemical substance (yeast gene YEL024W, cells incubated two hours with the chemical substance): 0.9
- The level of expressed mRNA in the presence of chemical substance/The level of expressed mRNA in the absence of chemical substance (yeast gene YEL039C, cells incubated two hours with the chemical substance): 1.7
- The level of expressed mRNA in the presence of chemical substance/The level of expressed mRNA in the absence of chemical substance (yeast gene YER178W): 2.5
- The level of expressed mRNA in the presence of chemical substance/The level of expressed mRNA in the absence of chemical substance (yeast gene YFL057C): 27.7
- The level of expressed mRNA in the presence of chemical substance/The level of expressed mRNA in the absence of chemical substance (yeast gene YFR053C): 1.5
- The level of expressed mRNA in the presence of chemical substance/The level of expressed mRNA in the absence of chemical substance (yeast gene YGL018C, cells incubated two hours with the chemical substance): 1.1
- The level of expressed mRNA in the presence of chemical substance/The level of expressed mRNA in the absence of chemical substance (yeast gene YGL062W): 0.7
- The level of expressed mRNA in the presence of chemical substance/The level of expressed mRNA in the absence of chemical substance (yeast gene YGL187C, cells incubated two hours with the chemical substance): 0.7
- The level of expressed mRNA in the presence of chemical substance/The level of expressed mRNA in the absence of chemical substance (yeast gene YGL191W, cells incubated two hours with the chemical substance): 1.6
- The level of expressed mRNA in the presence of chemical substance/The level of expressed mRNA in the absence of chemical substance (yeast gene YGL205W, cells incubated two hours with the chemical substance): 0.4
- The level of expressed mRNA in the presence of chemical substance/The level of expressed mRNA in the absence of chemical substance (yeast gene YGL256W, cells incubated two hours with the chemical substance): 1.0
- The level of expressed mRNA in the presence of chemical substance/The level of expressed mRNA in the absence of chemical substance (yeast gene YGR008C): 2.6
- The level of expressed mRNA in the presence of chemical substance/The level of expressed mRNA in the absence of chemical substance (yeast gene YGR043C): 3.6
- The level of expressed mRNA in the presence of chemical substance/The level of expressed mRNA in the absence of chemical substance (yeast gene YGR062C, cells incubated two hours with the chemical substance, 25° C., YPD medium): 1.6
- The level of expressed mRNA in the presence of chemical substance/The level of expressed mRNA in the absence of chemical substance (yeast gene YGR087C, cells incubated two hours with the chemical substance): 0.8
- The level of expressed mRNA in the presence of chemical substance/The level of expressed mRNA in the absence of chemical substance (yeast gene YGR174C, cells incubated two hours with the chemical substance): 1.3
- The level of expressed mRNA in the presence of chemical substance/The level of expressed mRNA in the absence of chemical substance (yeast gene YGR192C): 2.3
- The level of expressed mRNA in the presence of chemical substance/The level of expressed mRNA in the absence of chemical substance (yeast gene YGR244C): 1.8
- The level of expressed mRNA in the presence of chemical substance/The level of expressed mRNA in the absence of chemical substance (yeast gene YGR254W): 1.3
- The level of expressed mRNA in the presence of chemical substance/The level of expressed mRNA in the absence of chemical substance (yeast gene YGR256W): 2.7
- The level of expressed mRNA in the presence of chemical substance/The level of expressed mRNA in the absence of chemical substance (yeast gene YHL008C): 1.4
- The level of expressed mRNA in the presence of chemical substance/The level of expressed mRNA in the absence of chemical substance (yeast gene YHR174W): 1.4
- The level of expressed mRNA in the presence of chemical substance/The level of expressed mRNA in the absence of chemical substance (yeast gene YHR179W): 2.0
- The level of expressed mRNA in the presence of chemical substance/The level of expressed mRNA in the absence of chemical substance (yeast gene YIL045W): 1.2
- The level of expressed mRNA in the presence of chemical substance/The level of expressed mRNA in the absence of chemical substance (yeast gene YIL160C): 2.4
- The level of expressed mRNA in the presence of chemical substance/The level of expressed mRNA in the absence of chemical substance (yeast gene YIR031C, cells incubated two hours with the chemical substance): 1.2
- The level of expressed mRNA in the presence of chemical substance/The level of expressed mRNA in the absence of chemical substance (yeast gene YJL052W): 4.3
- The level of expressed mRNA in the presence of chemical substance/The level of expressed mRNA in the absence of chemical substance (yeast gene YJL121C, cells incubated two hours with the chemical substance): 1.1

— patent US8192962B2, “Processes for detecting toxic substances” (Daikin Industries, Ltd., priority 2001, dated 2012)
